Values joined by “and” are separate entries in the source; they are usually repeats but may differ in a detail not shown here. Equal values may be shown once.
Legend:
[1] = molecular target: T1, AAA3 Walker A-mutant His-dynein 1 (K2601A) (Homo sapiens, UniProt Q14204, K2601A); test: ATPase activity of AAA3 Walker A-mutant (K2601A) His-dynein 1; type: biochemical; settings: for IC50: 2% DMSO, read-out: IC50, inhibition of the basal ATPase activity of the AAA3 Walker A-mutant His-dynein 1
T1 construct: (wild-type, K1912A, K2601A, AA 1320–4646, uniprot: Q14204); made in house; host or cells: Sf9 insect cells (baculovirus)
T1 sequence (Q14204 1320-4646 K2601A): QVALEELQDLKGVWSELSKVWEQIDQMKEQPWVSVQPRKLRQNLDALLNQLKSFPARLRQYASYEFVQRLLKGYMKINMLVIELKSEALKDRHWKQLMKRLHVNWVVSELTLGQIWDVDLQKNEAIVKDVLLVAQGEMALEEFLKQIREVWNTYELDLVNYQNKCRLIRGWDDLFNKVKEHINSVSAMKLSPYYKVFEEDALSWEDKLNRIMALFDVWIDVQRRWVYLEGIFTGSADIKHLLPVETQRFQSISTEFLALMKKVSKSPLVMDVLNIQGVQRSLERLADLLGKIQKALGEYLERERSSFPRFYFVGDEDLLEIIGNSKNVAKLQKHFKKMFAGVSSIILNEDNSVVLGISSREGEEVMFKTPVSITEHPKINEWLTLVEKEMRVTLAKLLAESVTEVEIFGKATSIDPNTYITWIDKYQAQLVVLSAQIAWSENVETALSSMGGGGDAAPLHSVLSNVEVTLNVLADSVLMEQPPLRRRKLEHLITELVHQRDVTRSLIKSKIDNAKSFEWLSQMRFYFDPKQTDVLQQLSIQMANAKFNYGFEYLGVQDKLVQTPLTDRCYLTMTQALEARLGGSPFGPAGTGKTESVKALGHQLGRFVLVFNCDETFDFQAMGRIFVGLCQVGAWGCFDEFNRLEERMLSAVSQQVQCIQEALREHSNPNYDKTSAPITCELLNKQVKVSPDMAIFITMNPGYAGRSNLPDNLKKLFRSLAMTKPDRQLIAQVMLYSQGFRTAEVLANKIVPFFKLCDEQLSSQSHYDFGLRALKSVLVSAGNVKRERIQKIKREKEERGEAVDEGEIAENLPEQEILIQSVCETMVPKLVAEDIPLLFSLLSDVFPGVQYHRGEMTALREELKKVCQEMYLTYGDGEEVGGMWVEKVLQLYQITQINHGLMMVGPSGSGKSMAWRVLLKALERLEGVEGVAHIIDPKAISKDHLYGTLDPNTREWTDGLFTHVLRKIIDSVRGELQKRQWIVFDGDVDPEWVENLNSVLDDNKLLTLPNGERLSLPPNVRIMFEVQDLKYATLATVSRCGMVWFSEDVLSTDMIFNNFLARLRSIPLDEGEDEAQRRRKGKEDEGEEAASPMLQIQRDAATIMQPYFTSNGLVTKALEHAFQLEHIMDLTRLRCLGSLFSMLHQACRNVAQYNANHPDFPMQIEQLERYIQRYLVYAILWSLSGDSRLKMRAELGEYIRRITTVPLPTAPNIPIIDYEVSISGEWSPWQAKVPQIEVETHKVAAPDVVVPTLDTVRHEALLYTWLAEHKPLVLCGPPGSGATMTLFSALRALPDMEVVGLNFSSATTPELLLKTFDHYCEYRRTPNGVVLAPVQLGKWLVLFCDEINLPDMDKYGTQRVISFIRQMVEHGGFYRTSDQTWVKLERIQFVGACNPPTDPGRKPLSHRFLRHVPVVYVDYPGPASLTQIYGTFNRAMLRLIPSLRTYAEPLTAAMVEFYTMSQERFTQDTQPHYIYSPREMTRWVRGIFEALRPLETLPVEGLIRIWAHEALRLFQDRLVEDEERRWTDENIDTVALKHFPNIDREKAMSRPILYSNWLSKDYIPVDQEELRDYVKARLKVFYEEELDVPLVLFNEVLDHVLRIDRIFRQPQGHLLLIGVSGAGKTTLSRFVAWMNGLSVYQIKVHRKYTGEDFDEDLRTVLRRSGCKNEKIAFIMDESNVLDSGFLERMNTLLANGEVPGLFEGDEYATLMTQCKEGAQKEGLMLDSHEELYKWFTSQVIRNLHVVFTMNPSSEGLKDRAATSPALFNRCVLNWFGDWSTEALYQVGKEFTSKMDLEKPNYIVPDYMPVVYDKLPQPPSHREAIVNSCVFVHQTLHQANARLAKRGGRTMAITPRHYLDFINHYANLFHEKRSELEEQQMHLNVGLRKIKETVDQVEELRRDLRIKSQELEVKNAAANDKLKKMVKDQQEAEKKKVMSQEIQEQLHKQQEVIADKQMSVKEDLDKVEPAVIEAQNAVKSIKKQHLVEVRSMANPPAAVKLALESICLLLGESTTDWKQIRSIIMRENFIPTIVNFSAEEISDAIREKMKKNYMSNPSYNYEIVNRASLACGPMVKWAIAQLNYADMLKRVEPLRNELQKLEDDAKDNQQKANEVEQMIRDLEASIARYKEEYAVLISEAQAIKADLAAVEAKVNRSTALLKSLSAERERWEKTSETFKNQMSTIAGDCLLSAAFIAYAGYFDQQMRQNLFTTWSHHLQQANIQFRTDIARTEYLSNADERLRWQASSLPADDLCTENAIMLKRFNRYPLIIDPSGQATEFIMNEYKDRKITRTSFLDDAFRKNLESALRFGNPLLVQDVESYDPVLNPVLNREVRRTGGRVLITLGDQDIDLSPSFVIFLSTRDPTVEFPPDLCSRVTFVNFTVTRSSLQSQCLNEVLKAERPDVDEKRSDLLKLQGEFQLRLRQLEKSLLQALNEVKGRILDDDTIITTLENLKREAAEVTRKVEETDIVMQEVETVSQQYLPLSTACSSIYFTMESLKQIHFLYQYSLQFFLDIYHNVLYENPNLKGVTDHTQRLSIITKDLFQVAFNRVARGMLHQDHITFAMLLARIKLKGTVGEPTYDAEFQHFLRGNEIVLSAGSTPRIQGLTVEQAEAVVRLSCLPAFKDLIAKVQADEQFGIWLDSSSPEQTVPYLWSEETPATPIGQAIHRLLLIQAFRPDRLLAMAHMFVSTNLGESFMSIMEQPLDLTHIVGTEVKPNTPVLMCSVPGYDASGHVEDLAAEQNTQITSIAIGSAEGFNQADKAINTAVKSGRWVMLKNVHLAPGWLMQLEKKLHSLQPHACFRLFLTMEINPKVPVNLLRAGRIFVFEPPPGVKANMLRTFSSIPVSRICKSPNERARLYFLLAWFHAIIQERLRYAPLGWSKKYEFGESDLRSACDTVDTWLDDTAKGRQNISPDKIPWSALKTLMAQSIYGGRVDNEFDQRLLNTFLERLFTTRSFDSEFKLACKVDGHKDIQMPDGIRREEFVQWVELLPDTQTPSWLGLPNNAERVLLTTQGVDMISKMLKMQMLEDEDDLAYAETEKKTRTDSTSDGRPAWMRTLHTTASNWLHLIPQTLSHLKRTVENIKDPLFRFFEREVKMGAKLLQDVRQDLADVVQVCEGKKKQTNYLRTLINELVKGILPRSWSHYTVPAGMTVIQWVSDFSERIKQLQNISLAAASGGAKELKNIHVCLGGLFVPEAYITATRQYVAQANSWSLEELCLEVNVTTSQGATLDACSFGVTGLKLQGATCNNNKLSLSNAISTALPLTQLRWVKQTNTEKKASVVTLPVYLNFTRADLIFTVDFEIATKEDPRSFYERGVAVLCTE
Method: (§1) ATPase assays using recombinant Dynein 1 (wild-type and mutants) were performed in a buffer containing 25 mM PIPES pH7.0, 30 mM KCl, 1 mM EGTA, 5 mM MgCl2, 0.01% triton X-100, 1 mM DTT, and 20–30 µM taxol (if microtubules were present). For typical conditions, enzyme was incubated with varying concentrations of inhibitor in buffer containing 2% DMSO for 10 min in a volume of 10 μL. When microtubules were present, they were polymerized by stepwise addition of taxol and high concentrations of DMSO (30% final during polymerization reactions), and re-suspended following centrifugation in ATPase buffer to a concentration up to threefold above the final concentration used in the reaction (bovine brain tubulin, no fluoresecent label). For microtubule-stimulated reactions in dose-response format, reactions were assembled by 1:1:1 mixture of 3x enzyme stock, 3x compound stock (in buffer with 6% DMSO), and 3x microtubule stock to each well. For microtubule-stimulated ATPase assays at tubulin concentrations > 2.5 µM, enzyme stock was supplemented with compound stock in pure DMSO (resulting in an intermediate DMSO concentration of 6%), and then the microtubule stock was added. Final enzyme concentrations were 30–100 nM for GFP-dynein 1, wild-type 6x-His-dynein 1, and K2601A 6x-His-dynein 1 and up to 500 nM for K1912A 6x-His-dynein 1. The final DMSO concentration was 2% in all ATPase assays performed.
(§2) Assembled reaction mixtures (including enzyme, compound, and microtubules, if present) were incubated for 10 min before addition of ATP. Each ATPase reaction was initiated by addition of 2 μL of a 6x ATP stock containing trace γ-^32P ATP (3 µCi/mmol, 3 µCi/mL, Perkin Elmer) and allowed to proceed for a time predetermined to lie within the linear range of the assay (20–30 min). For typical conditions, ATP was used at a final concentration of 1 mM. Reactions were quenched by the addition of 12 µL 100 mM EDTA, and 2 μL of each quenched reaction was spotted onto PEI-cellulose TLC plates (Millipore). Plates were developed in a glass chamber with a freshly prepared solution of 150 mM formic acid and 150 mM LiCl, dried, exposed to a storage phosphor tray (GE Healthsciences), and scanned on a Typhoon imaging system (GE Healthsciences). The fraction of γ-phosphate hydrolyzed in each condition was quantified using FIJI.
Curve fitting: Where dose-response experiments are fit and IC50values given, these are obtained as follows: Individual experiments are treated as separate. The data are fit to a sigmoidal dose-response curve of the form (Y=Bottom + (Top-Bottom)/(1 + 10^((LogIC50-X)*HillSlope)). All variables were allowed to float freely with the exception of the variable denoted ‘bottom’, which was constrained to be >0. The separate IC50 values obtained from fits to each individual experiment's dataset were averaged together and presented as a mean with range (Figure 3G and H) or standard deviation (Figures 3I, 5D, 6E and K).

[2] = molecular target: T2, His-dynein 1 (Homo sapiens, UniProt Q14204); test: Microtubule-stimulated ATPase activity of His-dynein 1; type: biochemical; settings: 1 mM MgATP
T2 construct: (wild-type, K1912A, K2601A, AA 1320–4646, uniprot: Q14204); made in house; host or cells: Sf9 insect cells (baculovirus)
T2 sequence (Q14204 1320-4646): as the sequence (Q14204 1320-4646 K2601A) above, with A1282K counted along it
Method: as §1, §2
Curve fitting: Where dose-response experiments are fit and IC50values given, these are obtained as follows: Individual experiments are treated as separate. […]

SMILES | Reduction of AAA3 mutant dynein's ATPase activity across the range of microtubule concentrations tested ([1]; 30 µM compound, 1 mM MgATP) | inhibition at 30 µM ([1]; 30 µM compound, no microtubules, read-out: Inhibition of basal activity of the AAA3 mutant) [%] | IC50 ([1]; 1 mM MgATP) | Residual ATPase activity of AAA3 mutant at the highest concentrations tested ([1]; basal activity, dose-response) | Plateau of microtubule-stimulated ATPase activity at increasing compound concentrations ([2]; 2.5 µM microtubules) | IC50 ([2]; 2.5 µM microtubules, fit to non-zero plateau, read-out: IC50, inhibition of microtubule-stimulated His-dynein 1 ATPase activity) [µM] | Residual rate of microtubule-stimulated ATPase activity ([2]; 30 µM compound, 8 or 15 µM microtubules)
N#Cc1c(C2(c3ccc(Cl)cc3)CC2)nn2c1[nH]c(=O)c1cc(I)ccc12 [Compound 8, 2-[1-(4-chlorophenyl)cyclopropyl]-7-iodo-5-oxo-4H-pyrazolo[1,5-a]quinazoline-3-carbonitrile] | 70–80% | ~70 | 5.5 ± 1.6 µM | ~ 0.2 s^−1 | ~ 0.5 s^−1 | 6.2 ± 1.6 | ~ 0.5 s^−1
N#C/C(C(=O)c1ccc(Cl)cc1Cl)=C1\NC(=O)c2ccc(Cl)cc2N1 [ciliobrevin D, reference compound] | – | – | 38.4 µM and 38 µM | – | did not reveal a plateau | – | –

Source: paper PMC5478271, “Chemical structure-guided design of dynapyrazoles, cell-permeable dynein inhibitors with a unique mode of action” (eLife, 2017)
